Target: T1, Chk1 (Homo sapiens, UniProt O14757)
T1 construct: purchased Upstate Biotechnology
T1 sequence (O14757 1-476): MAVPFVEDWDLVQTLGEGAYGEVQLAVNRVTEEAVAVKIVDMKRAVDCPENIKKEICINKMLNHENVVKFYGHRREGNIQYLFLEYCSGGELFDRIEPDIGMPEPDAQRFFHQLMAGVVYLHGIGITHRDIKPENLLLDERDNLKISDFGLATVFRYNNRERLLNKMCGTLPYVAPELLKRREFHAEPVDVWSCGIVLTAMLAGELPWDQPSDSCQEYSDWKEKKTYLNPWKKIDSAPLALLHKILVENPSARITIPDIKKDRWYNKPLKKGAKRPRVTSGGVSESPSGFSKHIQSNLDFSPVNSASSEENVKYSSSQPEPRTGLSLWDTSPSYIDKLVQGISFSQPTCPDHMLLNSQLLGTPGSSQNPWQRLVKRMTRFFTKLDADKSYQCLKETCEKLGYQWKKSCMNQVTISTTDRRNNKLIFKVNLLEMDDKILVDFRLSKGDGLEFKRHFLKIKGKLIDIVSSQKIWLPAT
Assay: Chk1 kinase assay: incorporation of γ-33P ATP into immobilized myelin basic protein
Assay type: biochemical
Details: Table 11; Chk1 only; read-out: Chk1 IC50
How it was run: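 Plates coated with MBP, then kinase reactions in Hepes pH 7.6 buffer with 10 mM MgCl2 and 1% DMSO were started by adding unlabeled plus γ-33P ATP (10 μM for Chk1 at 10 nM enzyme; 30 μM for Chk2 at 20 nM enzyme). After 1 h at room temperature, plates were washed and counted.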

Molecule `CNC(=O)c1nc(-c2cccc(CNC3Cc4cccc(F)c4C3)c2)cnc1N` (centres unmarked) [Example 466, 3-amino-6-(3-{[(4-fluoro-2,3-dihydro-1H-inden-2-yl)amino]methyl}phenyl)-N-methylpyrazine-2-carboxamide] has an IC50 of under 50 nM.
`CNC(=O)c1nc(-c2cccc(CNC3Cc4c(F)cccc4C3O)c2)cnc1N` (centres unmarked) [Example 467, 3-amino-6-(3-{[(4-fluoro-1-hydroxy-2,3-dihydro-1H-inden-2-yl)amino]methyl}phenyl)-N-methylpyrazine-2-carboxamide] gave an IC50 of 50 to 1000 nM.
With `CNC(=O)c1nc(-c2cccc(CN[C@@H]3c4ccccc4C[C@@H]3OC)c2)cnc1N` [Example 468, 3-amino-N-methyl-6-[3-({[(1R,2S)-2-(methyloxy)-2,3-dihydro-1H-inden-1-yl]amino}methyl)phenyl]pyrazine-2-carboxamide] the IC50 was 50 to 1000 nM.
Molecule `CNC(=O)c1nc(-c2cccc(CNC3CCc4c(F)ccc(F)c43)c2)cnc1N` (centres unmarked) [Example 469, 3-amino-6-(3-{[(4,7-difluoro-2,3-dihydro-1H-inden-1-yl)amino]methyl}phenyl)-N-methylpyrazine-2-carboxamide] has an IC50 of 50 to 1000 nM.
`CNC(=O)c1nc(-c2cccc(CNC3CCc4c(F)cc(Br)cc43)c2)cnc1N` (centres unmarked) [Example 470, 3-amino-6-(3-{[(6-bromo-4-fluoro-2,3-dihydro-1H-inden-1-yl)amino]methyl}phenyl)-N-methylpyrazine-2-carboxamide] showed an IC50 of 50 to 1000 nM.
For `CNC(=O)c1nc(-c2cccc(CNC3CC(=O)c4ccccc43)c2)cnc1N` (centres unmarked) [Example 471, 3-amino-N-methyl-6-(3-{[(3-oxo-2,3-dihydro-1H-inden-1-yl)amino]methyl}phenyl)pyrazine-2-carboxamide], the IC50 was 50 to 1000 nM.
`CNC(=O)c1nc(-c2cccc(CNC3CCc4cc(-c5ccco5)ccc43)c2)cnc1N` (centres unmarked) [Example 472, 3-amino-6-(3-{[(5-furan-2-yl-2,3-dihydro-1H-inden-1-yl)amino]methyl}phenyl)-N-methylpyrazine-2-carboxamide] showed an IC50 of under 50 nM.
In the case of `CNC(=O)c1nc(-c2cccc(CNC3CCc4c(F)cccc43)c2)cnc1N` (centres unmarked) [Example 473, 3-amino-6-(3-{[(4-fluoro-2,3-dihydro-1H-inden-1-yl)amino]methyl}phenyl)-N-methylpyrazine-2-carboxamide], the IC50 is reported as 50 to 1000 nM.
Work on `CNC(=O)c1nc(-c2cccc(CNC3CCc4c(F)cc(F)cc43)c2)cnc1N` (centres unmarked) [Example 474, 3-amino-6-(3-{[(4,6-difluoro-2,3-dihydro-1H-inden-1-yl)amino]methyl}phenyl)-N-methylpyrazine-2-carboxamide] yielded an IC50 of 50 to 1000 nM.
In the case of `CNC(=O)c1nc(-c2cccc(CNC3CCc4ccc(F)cc43)c2)cnc1N` (centres unmarked) [Example 475, 3-amino-6-(3-{[(6-fluoro-2,3-dihydro-1H-inden-1-yl)amino]methyl}phenyl)-N-methylpyrazine-2-carboxamide], the IC50 is reported as under 50 nM.
In the case of `CNC(=O)c1nc(-c2cccc(CNC3CCc4cc(F)c(F)cc43)c2)cnc1N` (centres unmarked) [Example 476, 3-amino-6-(3-{[(5,6-difluoro-2,3-dihydro-1H-inden-1-yl)amino]methyl}phenyl)-N-methylpyrazine-2-carboxamide], the IC50 is reported as 50 to 1000 nM.
`CNC(=O)c1nc(-c2cccc(CNC3CCc4cc(Cl)ccc43)c2)cnc1N` (centres unmarked) [Example 477, 3-amino-6-(3-{[(5-chloro-2,3-dihydro-1H-inden-1-yl)amino]methyl}phenyl)-N-methylpyrazine-2-carboxamide] gave an IC50 of under 50 nM.
With `CNC(=O)c1nc(-c2cccc(CNC3CCc4cc(-c5cccs5)ccc43)c2)cnc1N` (centres unmarked) [Example 478, 3-amino-N-methyl-6-[3-({[5-(2-thienyl)-2,3-dihydro-1H-inden-1-yl]amino}methyl)phenyl]pyrazine-2-carboxamide] the IC50 was under 50 nM.
Molecule `CNC(=O)c1nc(-c2cccc(CNC3CCc4cc(F)cc(F)c43)c2)cnc1N` (centres unmarked) [Example 479, 3-amino-6-(3-{[(5,7-difluoro-2,3-dihydro-1H-inden-1-yl)amino]methyl}phenyl)-N-methylpyrazine-2-carboxamide] has an IC50 of 50 to 1000 nM.
`CNC(=O)c1nc(-c2cccc(CNC3CCc4cc(-c5ccoc5)ccc43)c2)cnc1N` (centres unmarked) [Example 480, 3-amino-6-(3-{[(5-furan-3-yl-2,3-dihydro-1H-inden-1-yl)amino]methyl}phenyl)-N-methylpyrazine-2-carboxamide] gave an IC50 of under 50 nM.
`CNC(=O)c1nc(-c2cccc(CNC3CCc4cc(-c5ccsc5)ccc43)c2)cnc1N` (centres unmarked) [Example 481, 3-amino-N-methyl-6-[3-({[5-(3-thienyl)-2,3-dihydro-1H-inden-1-yl]amino}methyl)phenyl]pyrazine-2-carboxamide] gave an IC50 of under 50 nM.
Molecule `CNC(=O)c1nc(-c2cccc(CN[C@H]3CCc4c(F)cccc43)c2)cnc1N` [Example 482, 3-amino-6-[3-({[(1S)-4-fluoro-2,3-dihydro-1H-inden-1-yl]amino}methyl)phenyl]-N-methylpyrazine-2-carboxamide] has an IC50 of under 50 nM.
`CNC(=O)c1nc(-c2cccc(CN[C@H]3CCc4cc(F)cc(F)c43)c2)cnc1N` [Example 483, 3-amino-6-[3-({[(1S)-5,7-difluoro-2,3-dihydro-1H-inden-1-yl]amino}methyl)phenyl]-N-methylpyrazine-2-carboxamide] was tested, and the IC50 was 50 to 1000 nM.
For `CNC(=O)c1nc(-c2cccc(CNC3CCc4c(F)ccc(Br)c43)c2)cnc1N` (centres unmarked) [Example 484, 3-amino-6-(3-{[(7-bromo-4-fluoro-2,3-dihydro-1H-inden-1-yl)amino]methyl}phenyl)-N-methylpyrazine-2-carboxamide], the IC50 was 50 to 1000 nM.
`CNC(=O)c1nc(-c2cccc(CNC3CCc4ccc(Cl)cc43)c2)cnc1N` (centres unmarked) [Example 485, 3-amino-6-(3-{[(6-chloro-2,3-dihydro-1H-inden-1-yl)amino]methyl}phenyl)-N-methylpyrazine-2-carboxamide] was tested, and the IC50 was 50 to 1000 nM.
In the case of `CNC(=O)c1nc(-c2cccc(CNC3CCc4c(Cl)cc(Cl)cc43)c2)cnc1N` (centres unmarked) [Example 486, 3-amino-6-(3-{[(4,6-dichloro-2,3-dihydro-1H-inden-1-yl)amino]methyl}phenyl)-N-methylpyrazine-2-carboxamide], the IC50 is reported as 50 to 1000 nM.
In the case of `CNC(=O)c1nc(-c2cccc(CNC3CCc4c(Cl)cccc43)c2)cnc1N` (centres unmarked) [Example 487, 3-amino-6-(3-{[(4-chloro-2,3-dihydro-1H-inden-1-yl)amino]methyl}phenyl)-N-methylpyrazine-2-carboxamide], the IC50 is reported as under 50 nM.
With `CCNC(=O)c1nc(-c2cccc(CN[C@H]3CCc4ccccc43)c2)cnc1N` [Example 488, 3-amino-6-(3-{[(1S)-2,3-dihydro-1H-inden-1-ylamino]methyl}phenyl)-N-ethylpyrazine-2-carboxamide] the IC50 was 50 to 1000 nM.
In the case of `CCNC(=O)c1nc(-c2cccc(CNC3CCc4cc(F)cc(F)c43)c2)cnc1N` (centres unmarked) [Example 489, 3-amino-6-(3-{[(5,7-difluoro-2,3-dihydro-1H-inden-1-yl)amino]methyl}phenyl)-N-ethylpyrazine-2-carboxamide], the IC50 is reported as 50 to 1000 nM.
Work on `CNC(=O)c1nc(-c2cccc(CN[C@H]3CCc4cc(-c5cccs5)ccc43)c2)cnc1N` [Example 490, 3-amino-N-methyl-6-[3-({[(1S)-5-(2-thienyl)-2,3-dihydro-1H-inden-1-yl]amino}methyl)phenyl]pyrazine-2-carboxamide] yielded an IC50 of under 50 nM.
For `CNC(=O)c1nc(-c2cccc(CNC3CCc4cc(-c5ccccc5)ccc43)c2)cnc1N` (centres unmarked) [Example 491, 3-amino-N-methyl-6-(3-{[(5-phenyl-2,3-dihydro-1H-inden-1-yl)amino]methyl}phenyl)pyrazine-2-carboxamide], the IC50 was 50 to 1000 nM.
